Consider twelve molecules from ChEMBL document CHEMBL4825772, “Protein Degradation Inducers of Androgen Receptor by Conjugation of Antagonists Androgen Receptor and E3 Ligase Ligand” (ACS Med Chem Lett, 2021).

In general, DC50 refers to the concentration at which degradation of the target reaches its halfway point.

Chain of Protein cereblon/Androgen receptor (P10275 whole entry): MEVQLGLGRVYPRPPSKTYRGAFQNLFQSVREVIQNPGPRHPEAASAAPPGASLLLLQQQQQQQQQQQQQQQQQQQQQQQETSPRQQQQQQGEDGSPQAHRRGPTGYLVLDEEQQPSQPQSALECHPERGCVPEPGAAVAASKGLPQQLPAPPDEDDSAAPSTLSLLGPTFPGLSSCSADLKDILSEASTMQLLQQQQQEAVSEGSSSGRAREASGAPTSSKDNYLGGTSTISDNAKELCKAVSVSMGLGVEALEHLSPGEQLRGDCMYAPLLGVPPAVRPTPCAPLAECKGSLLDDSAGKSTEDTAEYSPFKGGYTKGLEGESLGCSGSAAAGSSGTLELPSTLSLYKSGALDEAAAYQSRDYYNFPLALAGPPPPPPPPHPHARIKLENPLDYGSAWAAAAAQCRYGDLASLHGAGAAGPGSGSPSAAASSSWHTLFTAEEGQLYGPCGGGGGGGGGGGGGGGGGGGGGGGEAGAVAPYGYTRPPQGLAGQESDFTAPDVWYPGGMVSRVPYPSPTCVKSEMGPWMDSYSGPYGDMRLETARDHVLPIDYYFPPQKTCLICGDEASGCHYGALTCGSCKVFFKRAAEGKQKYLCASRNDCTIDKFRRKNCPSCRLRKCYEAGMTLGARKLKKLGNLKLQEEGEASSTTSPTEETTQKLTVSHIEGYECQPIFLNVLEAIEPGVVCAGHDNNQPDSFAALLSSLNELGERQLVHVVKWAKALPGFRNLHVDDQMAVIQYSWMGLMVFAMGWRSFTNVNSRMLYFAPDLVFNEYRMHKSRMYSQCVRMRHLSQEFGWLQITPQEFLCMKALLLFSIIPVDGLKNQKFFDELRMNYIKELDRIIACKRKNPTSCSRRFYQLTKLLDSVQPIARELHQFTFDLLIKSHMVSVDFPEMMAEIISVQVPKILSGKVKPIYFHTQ
Chain of Protein cereblon/Androgen receptor (Q96SW2 whole entry): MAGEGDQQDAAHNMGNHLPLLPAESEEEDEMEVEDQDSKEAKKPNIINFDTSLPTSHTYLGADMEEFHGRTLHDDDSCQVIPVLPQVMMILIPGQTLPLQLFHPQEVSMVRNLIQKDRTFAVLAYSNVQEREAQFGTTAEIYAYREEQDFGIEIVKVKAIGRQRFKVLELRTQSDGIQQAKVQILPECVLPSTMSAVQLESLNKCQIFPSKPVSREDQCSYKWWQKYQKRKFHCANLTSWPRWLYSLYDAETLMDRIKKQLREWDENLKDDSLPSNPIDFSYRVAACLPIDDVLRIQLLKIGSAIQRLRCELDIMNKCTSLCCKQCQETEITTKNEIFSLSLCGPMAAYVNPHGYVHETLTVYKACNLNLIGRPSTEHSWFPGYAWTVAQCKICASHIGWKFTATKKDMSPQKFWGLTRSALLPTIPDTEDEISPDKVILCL

This assay concerns the target Protein cereblon/Androgen receptor (Homo sapiens, UniProt P10275+Q96SW2). Description: Protac activity at E3 ubiquitin ligase/androgen receptor in human LNCaP cells assessed as induction of androgen receptor degradation incubated for overnight by sandwich ELISA. The class given is cell-based. On the technique in general: In an ELISA, binding on a coated surface is turned into a signal by an enzyme label.
Regarding `N#Cc1ccc(N2CCc3c(ncnc3Nc3ccc(C(=O)NCC(=O)N4CCC(CN5CCN(c6cc7c(cc6F)C(=O)N(C6CCC(=O)NC6=O)C7=O)CC5)CC4)c(F)n3)C2)cc1Cl` (configuration not stated), the 50% degradation concentration (DC50) was 2.8 nM.

Consider `N#Cc1ccc(N2CCc3c(ncnc3Nc3ccc(C(=O)N4CCC(CN5CCN(c6ccc7c(c6)C(=O)N(C6CCC(=O)NC6=O)C7=O)CC5)CC4)c(F)n3)C2)cc1Cl` (configuration not stated), for which the half-maximal degradation concentration (DC50) is 3.2 nM.

For `CN(C1CCN(C(=O)c2ccc(Nc3ncnc4c3CCN(c3ccc(C#N)c(Cl)c3)C4)nc2F)CC1)C1CCN(c2cc3c(cc2F)C(=O)N(C2CCC(=O)NC2=O)C3=O)CC1` (configuration not stated), the DC50 is 16.6 nM.

For the molecule `N#Cc1ccc(N2CCc3c(ncnc3Nc3ccc(C(=O)NC4CCN(CC5CCN(c6ccc7c(c6)C(=O)N(C6CCC(=O)NC6=O)C7=O)CC5)CC4)c(F)n3)C2)cc1Cl` (configuration not stated), the 50% degradation concentration (DC50) was determined as 8.5 nM.

As to `N#Cc1ccc(N2CCc3c(ncnc3Nc3ccc(C(=O)N[C@H]4CC[C@H](CN5CCN(c6cc7c(cc6F)C(=O)N(C6CCC(=O)NC6=O)C7=O)CC5)CC4)c(F)n3)C2)cc1Cl` (some centres not stated), the DC50 is 9.2 nM.

On to `C[C@H]1CN(c2ccc3c(c2)C(=O)N(C2CCC(=O)NC2=O)C3=O)CCN1C[C@H]1CC[C@H](NC(=O)c2ccc(Nc3ncnc4c3CCN(c3ccc(C#N)c(Cl)c3)C4)nc2F)CC1` (some centres not stated), for which the 50% degradation concentration (DC50) was determined as 9.1 nM.

`CN(C1CCN(C(=O)c2ccc(Nc3ncnc4c3CCN(c3ccc(C#N)c(Cl)c3)C4)nc2F)CC1)C1CCN(c2ccc3c(c2)C(=O)N(C2CCC(=O)NC2=O)C3=O)CC1` (configuration not stated): the 50% degradation concentration (DC50) stood at 4.82 nM.

As to `C[C@@H]1CN(c2ccc3c(c2)C(=O)N(C2CCC(=O)NC2=O)C3=O)CCN1C[C@H]1CC[C@H](NC(=O)c2ccc(Nc3ncnc4c3CCN(c3ccc(C#N)c(Cl)c3)C4)nc2F)CC1` (some centres not stated), the DC50 was found to be 5.3 nM.

Take `N#Cc1ccc(N2CCc3c(ncnc3Nc3ccc(C(=O)NC4CCN(C5CCN(c6ccc7c(c6)C(=O)N(C6CCC(=O)NC6=O)C7=O)CC5)CC4)c(F)n3)C2)cc1Cl` (configuration not stated): the DC50 stood at 4.9 nM.

With `N#Cc1ccc(N2CCc3c(ncnc3Nc3ccc(C(=O)NCCC(=O)N4CCC(CN5CCN(c6cc7c(cc6F)C(=O)N(C6CCC(=O)NC6=O)C7=O)CC5)CC4)c(F)n3)C2)cc1Cl` (configuration not stated), the half-maximal degradation concentration (DC50) came to 7.7 nM.

`N#Cc1ccc(N2CCc3c(ncnc3Nc3ccc(C(=O)N4CCC(CN5CCN(c6cc7c(cc6F)C(=O)N(C6CCC(=O)NC6=O)C7=O)CC5)CC4)c(F)n3)C2)cc1Cl` (configuration not stated): the DC50 came to 11.6 nM.

As for `N#Cc1ccc(N2CCc3c(ncnc3Nc3ccc(C(=O)NCCCCCCN4CCN(c5ccc6c(c5)C(=O)N(C5CCC(=O)NC5=O)C6=O)CC4)c(F)n3)C2)cc1Cl` (configuration not stated), the 50% degradation concentration (DC50) was determined as 3 nM.
